Experiments:
E4ORF1-infected ECs = assay: Survival of E4ORF1-infected ECs with signaling inhibitors (trypan blue viable cell count); format: cell-based, human; conditions: 10 μM, 2 days, serum-free, growth factor-free medium
[1] = system: Lenti-E4ORF1 infected-ECs; assay: Viable cell count of Lenti-E4ORF1-infected ECs with FGFR or VEGFR2 inhibitor; conditions: 10 μM, 48 hours, with or without FGF-2
ECs = assay: Time course of EC proliferation in serum-free medium with or without FGF-2 and VEGF-A; format: cell-based, human; conditions: FGF-2 5 ng/ml
Protocol: To further attribute the pro-survival effect of E4ORF1-expressing ECs through the activation of FGFR-1, recombinant FGF-2 (rFGF-2) was added to the serum-free culture medium (FIG. 3F).

VEGF-A = VEGF-A expression in ECs by ELISA and Western blot; format: cell-based
Description: Exposure of survival factors, such as FGF-2 and VEGF-A, is important for maintaining EC survival and migration (Meredith et al. (1993) Mol Biol Cell 4(9): 953-61). […] E4ORF1 product has been shown in this invention to increase FGF-2 expression in EC monolayers. […] Thus, the effect of E4ORF1 on the angiogenic process can result from an increase in endogenous FGF-2 expression. FGF-2 serves both paracrine and autocrine functions in the regulation of angiogenesis. […] Studies have shown that FGF-2 is a downstream target of PI3K in many important cellular pathways (Zhang et al. (2006) J Biol Chem 281(2):905-14; Weylie et al. (2006) J Vasc Res 43(1):61-9). However, FGF-2 can also activate PI3K/Akt signaling pathway (Vandermoere et al. (2005) Oncogene 24(35):5482-91). Thus, FGF2-activated Akt pathway may involve a positive feedback loop. Indeed, E4ORF1 activated both PI3K and FGF-2 expression, and thus, exerting a synergistic effect on EC survival and angiogenesis.

human endothelial cells = conditions: E4ORF1 from type 5 or 9 adenoviruses

COc1cccc(-c2cc(=O)c3ccccc3o2)c1N [PD98059]
effect on survival of E4ORF1-expressing ECs (E4ORF1-infected ECs): Neither PD98059 nor SB203580 had significant effects

Cc1cc(C)c(/C=C2\C(=O)Nc3ccccc32)[nH]1 [SU5416]
effect on survival or proliferation (expansion) of E4ORF1-infected ECs [1]: did not significantly affect the survival or proliferation

C[S+]([O-])c1ccc(-c2nc(-c3ccncc3)c(-c3ccc(F)cc3)[nH]2)cc1 (centres unmarked) [SB203580]
effect on survival of E4ORF1-expressing ECs (E4ORF1-infected ECs): Neither PD98059 nor SB203580 had significant effects

rFGF-2: recombinant FGF-2
effect of added growth factor on ECs which did not express E4ORF1 (ECs): briefly supported the survival | effect of added growth factor on survival, proliferation or expansion of E4ORF1-expressing ECs (ECs; VEGF-A 10 ng/ml): robustly increased the proliferation of ECs

Cc1c[nH]c(/C=C2\C(=O)Nc3ccccc32)c1CCC(=O)O [SU5402]
effect on survival or proliferation (expansion) of E4ORF1-infected ECs [1]: blocked this expansion

B1: E4ORF1: adenovirus E4ORF1 gene and its gene product, SEQ ID NO:1 from human adenovirus 5 (nucleic acid)
chain: ATGGCTGCCGCTGTGGAAGCGCTGTATGTTGTTCTGGAGCGGGAGGGTGCTATTTTGCCTAGGCAGGAGGGTTTTTCAGGTGTTTATGTGTTTTTCTCTCCTATTAATTTTGTTATACCTCCTATGGGGGCTGTAATGTTGTCTCTACGCCTGCGGGTATGTCTTCCCCCGGGCTATTCGGTCGCTTTTTAGCACTGACCGATGTGAATCAACCTGATGTGTTTACCGAGTCTTACATTATGCATCCGGACATGACCGAGGAGCTGTCAGTGGTGCTTTTTAATCACGGTGACCAGTTTTTTTACGGTCACGCCGGCATGGCCGTAGTCCGTCTTATGCTTATAAGGGTTGTTTTTCCTGTTGTAAGACAGGCTTCTAATGTTTAA
modifications: Human adenovirus type 5
changes of VEGF-A expression in ECs (VEGF-A): not detectable | oncogenic effect (human endothelial cells): no oncogenic effect

Source: patent US11913021B2, “Methods and compositions for promoting survival and proliferation of endothelial cells and stimulating angiogenesis” (Cornell Research Foundation, Inc., priority 2007, dated 2024)
